Values of other authors as cited in patent US20140018386A1, “LAQUINIMOD FORMULATIONS WITHOUT ALKALIZING AGENT” (Teva Pharmaceutical Industries, Ltd., priority 2012, published 2014).

Legend:
[1] = system: various experimental inflammatory/autoimmune animal models; conditions: EAE, DSS colitis, NOD mice, EAN, SLE, lupus nephritis, lupus arthritis, Crohn's Disease, Rheumatoid arthritis
[2] = system: relapsing MS
[3] = system: acute experimental autoimmune encephalomyelitis (aEAE) model; conditions: in vivo
[4] = in vivo

SMILES | Therapeutic effect [1] | Development of active MRI lesions [2] | Effect in the aEAE model [3] | Oral bioavailability [4]
CCN(C(=O)c1c(O)c2c(Cl)cccc2n(C)c1=O)c1ccccc1 [Laquinimod, N-ethyl-N-phenyl-1,2-dihydro-4-hydroxy-5-chloro-1-methyl-2-oxoquinoline-3-carboxamide] | demonstrated therapeutic effect | can reduce development of active MRI lesions | effective | –
CCN(C(=O)c1c(O)c2c(Cl)cccc2n(C)c1=O)c1ccccc1 [Laquinimod sodium] | – | – | – | high oral bioavailability
